Reference: article PMC10468942, “A Fluorescent Probe as a Lead Compound for a Selective α-Synuclein PET Tracer: Development of a Library of 2-Styrylbenzothiazoles and Biological Evaluation of [^18F]PFSB and [^18F]MFSB” (ACS Omega, 2023)
“And” between values parts separate entries of the source, which are not always exact repeats. Equal entries are not always repeated.

Target: T1, αSYN fibrils (Homo sapiens, UniProt P37840)
T1 construct: cloning of the DNA construct encoding full-length αSYN into the pET-22b vector; made in house; host or cells: Escherichia coli BL21
Assay: [^3H]PiB competition binding assay on αSYN fibrils
Settings: methylated compounds, Table 2; two values in a cell = single determinations; read-out: Ki
Description: Following the cloning of the DNA construct encoding full-length αSYN into the pET-22b vector and its transformation into BL21 cells, the expression of human αSYN from a prokaryotic host was induced overnight in Escherichia coli at 20 °C with 0.5 mM IPTG. The cells were harvested by centrifugation, resuspended in 20 mM Tris-HCl pH 7.6, 25 mM NaCl and 1× complete protease inhibitor (Roche, Basel, Switzerland), and lysed by sonication. […] Anion exchange chromatography (HiTrap Q, GE Healthcare, Chicago, Illinois) was used to trap the produced αSYN, which was eluted with NaCl 0.1 M over 20 column volumes. Fractions containing αSYN were concentrated and further purified through a Superdex 75 SEC column equilibrated with PBS. […] A 4 mg/mL solution of αSYN in 20 mM K3PO4 pH 9.1 was placed in an orbital shaker at 37 °C, 1000 rpm for 5 days to prepare P91s. The assemblies were either sonicated with cycles of 20 s on and 10 s off at 50% amplitude (Q800R3, Qsonica) for a total of 10 min or directly aliquoted in volumes of 10 μL each stored at −80 °C until use. […] The final products were aliquoted, frozen on dry ice, and stored at −80 °C until use.
Concentrations of αSYN and Aβ1-42 fibrils were as described above.
Plates were incubated on a shaker (MaxQ 6000, Thermo Fisher Scientific, Inc., Marietta, OH) at 50 rpm for 2 h at 37 °C, covered by removable sealing tapes (PerkinElmer, Waltham, MA). Vacuum filtration and read-out were performed as previously reported.[17] […] Data points were fitted using nonlinear regression analysis in GraphPad Prism (GraphPad Software, Inc., Version 8.4.0, La Jolla).

Ki | SMILES
36.1 nM and 83.9 nM | Cc1cccc2sc(/C=C/c3ccc(N4CCCCC4)cc3)[n+](C)c12 [1b, 3,4-Dimethyl-2-(4-(piperidin-1-yl)styryl)benzo[d]thiazol-3-ium 4-nitrobenzenesulfonate]
70.8 nM and 34.3 nM | COc1cccc2sc(C=Cc3ccc(N4CCCCC4)cc3)[n+](C)c12 [2b, 4-Methoxy-3-methyl-2-(4-(piperidin-1-yl)styryl)benzo[d]thiazol-3-ium Iodide]
> 400 nM | C[n+]1c(/C=C/c2ccc(N3CCCCC3)cc2)sc2cccc(F)c21 [3b, 4-Fluoro-3-methyl-2-(4-(piperidin-1-yl)styryl)benzo[d]thiazol-3-ium 4-nitrobenzenesulfonate]
84.6 nM and 59.9 nM | Cc1ccc2sc(C=Cc3ccc(N4CCCCC4)cc3)[n+](C)c2c1 [4b, 3,5-Dimethyl-2-(4-(piperidin-1-yl)styryl)benzo[d]thiazol-3-ium Iodide]
27.5 nM and 163 nM | COc1ccc2sc(C=Cc3ccc(N4CCCCC4)cc3)[n+](C)c2c1 [5b, 5-Methoxy-3-methyl-2-(4-(piperidin-1-yl)styryl)benzo[d]thiazol-3-ium Iodide]
435 nM and 268 nM | C[n+]1c(C=Cc2ccc(N3CCCCC3)cc2)sc2ccc(F)cc21 [6b, 5-Fluoro-3-methyl-2-(4-(piperidin-1-yl)styryl)benzo[d]thiazol-3-ium Iodide]
16.8 nM and 23.8 nM | Cc1ccc2c(c1)sc(C=Cc1ccc(N3CCCCC3)cc1)[n+]2C [7b, 3,6-Dimethyl-2-(4-(piperidin-1-yl)styryl)benzo[d]thiazol-3-ium Iodide]
19.7 nM and 9.6 nM | COc1ccc2c(c1)sc(C=Cc1ccc(N3CCCCC3)cc1)[n+]2C [8b, 6-Methoxy-3-methyl-2-(4-(piperidin-1-yl)styryl)benzo[d]thiazol-3-ium Iodide]
335 nM and 43.6 nM | C[n+]1c(C=Cc2ccc(N3CCCCC3)cc2)sc2cc(F)ccc21 [9b, 6-Fluoro-3-methyl-2-(4-(piperidin-1-yl)styryl)benzo[d]thiazol-3-ium Iodide]
231 nM and 63.9 nM | Cc1cccc2c1sc(C=Cc1ccc(N3CCCCC3)cc1)[n+]2C [10b, 3,7-Dimethyl-2-(4-(piperidin-1-yl)styryl)benzo[d]thiazol-3-ium Iodide]
234 nM and 177 nM | COc1cccc2c1sc(C=Cc1ccc(N3CCCCC3)cc1)[n+]2C [11b, 7-Methoxy-3-methyl-2-(4-(piperidin-1-yl)styryl)benzo[d]thiazol-3-ium Iodide]

Same assay, conditions: nonmethylated compounds, Table 1; two values in a cell = single determinations; a: mean Ki ± SEM of three data points; b: single data point; read-out: Ki

Ki | SMILES
71.2 nM and 198 nM | Cc1cccc2sc(C=Cc3ccc(N4CCCCC4)cc3)nc12 [1a, 4-Methyl-2-(4-(piperidin-1-yl)styryl)benzo[d]thiazole]
> 400 nM | COc1cccc2sc(C=Cc3ccc(N4CCCCC4)cc3)nc12 [2a, 4-Methoxy-2-(4-(piperidin-1-yl)styryl)benzo[d]thiazole]
187 nM and 110 nM | Fc1cccc2sc(C=Cc3ccc(N4CCCCC4)cc3)nc12 [3a, 4-Fluoro-2-(4-(piperidin-1-yl)styryl)benzo[d]thiazole]
233 nM and 88.1 nM | Cc1ccc2sc(C=Cc3ccc(N4CCCCC4)cc3)nc2c1 [4a, 5-Methyl-2-(4-(piperidin-1-yl)styryl)benzo[d]thiazole]
128 nM and 188 nM | COc1ccc2sc(C=Cc3ccc(N4CCCCC4)cc3)nc2c1 [5a, 5-Methoxy-2-(4-(piperidin-1-yl)styryl)benzo[d]thiazole]
169 nM and 124 nM | Fc1ccc2sc(C=Cc3ccc(N4CCCCC4)cc3)nc2c1 [6a, 5-Fluoro-2-(4-(piperidin-1-yl)styryl)benzo[d]thiazole]
230 nM and 218 nM | Cc1ccc2nc(C=Cc3ccc(N4CCCCC4)cc3)sc2c1 [7a, 6-Methyl-2-(4-(piperidin-1-yl)styryl)benzo[d]thiazole]
110 nM and 103 nM | COc1ccc2nc(C=Cc3ccc(N4CCCCC4)cc3)sc2c1 [8a, 6-Methoxy-2-(4-(piperidin-1-yl)styryl)benzo[d]thiazole]
> 400 nM | Cc1cccc2nc(C=Cc3ccc(N4CCCCC4)cc3)sc12 [10a, 7-Methyl-2-(4-(piperidin-1-yl)styryl)benzo[d]thiazole]
> 400 nM | COc1cccc2nc(C=Cc3ccc(N4CCCCC4)cc3)sc12 [11a, 7-Methoxy-2-(4-(piperidin-1-yl)styryl)benzo[d]thiazole]
